Test results as given in US5213788A, “Physically and chemically stabilized polyatomic clusters for magnetic resonance image and spectral enhancement” (priority 1991, dated 1993).

Assays:
red cells = details: cited from earlier work
VX2 carcinomas = test: Histochemical platinum stain of tumor tissues after intraarterial perfusion; assay type: in vivo, rabbit; details: selective arterial perfusion
Procedure: At 5 to 15 minutes postinjection, the animals were sacrificed, their lungs removed and fixed with intratracheal buffered formalin, tissue sections cut at 8 microns thickness, and the sections stained using a newly devised method for platinum which comprises a microwave-augmented iron-type stain (60° C.×2 minute×3 cycles) using a 1:1 mixture of 2% ferriferrocyanide reagent and 4% HCl. […] To those skilled in the art, additional evidence for selective lung localization, was obtained by injecting intravenously, analogous (subembolizing) heparincoated small microparticles containing encapsulated amphotericin B, into identical mice, homogenizing the lungs, and documenting an 8-fold increment in drug levels over native amphotericin B (deoxycholate formulation, Fungizone; Squibb) recovered at 1 to 3 hours postinjection.
(§1) Additional documentation for maintenance of the cisplatin-carrier paired-ion complex in vivo was obtained as follows. […] Animals were sacrificed at 15 minutes, and the tumors and organs were homogenized extracted and analyzed by atomic absorption for tissue platinum concentrations, as shown in Table 1.
Additionally, histochemical platinum stains were performed on the tumor tissues, as described in Example 7.
Microinhomogeneities of tissue heating represent a major problem in hyperthermia treatment of tumors. […]

[1] = Complexation of exogenously added calcium ions (ionized calcium analyzer); assay type: binding
CBA/J mice = test: Tetany / toxicity following intravenous injection; assay type: in vivo; details: 10 mg/25 gm body weight
[2] = system: VX2 carcinomas of the right hind limb; test: Tissue platinum content by atomic absorption after selective intraarterial perfusion; assay type: in vivo; details: 15 mg cisplatin per rabbit intraarterially over 15 minutes
Procedure: as §1

[3] = system: BRO-strain human malignant melanomas; test: MR imaging of human malignant melanoma xenografts; assay type: in vivo, human tumor in Swiss nude mice
Procedure: The strong paramagnetic metal ion, gadolinium (Gd^+3), was chelated stoichiometrically to DTPA-Dextran 70 polymer, whose preparation is described in Example 1, paragraph 2 (improved formulation). Swiss nude mice were inoculated with BRO-strain human malignant melanomas, and these were allowed to grow to a 1-1.5 cm diameter. Moderately T1-weighted MR imaging (TR=500 msec, TE=40 msec) was performed in a standard Diasonics™ medical imager and a 30-cm RF head coil, before and after intravenous injection of equivalent doses of Gd-DTPA-Dextran-70 (0.03 mmol Gd/kg) or Gd-DTPA (0.1 mmol/kg) contrast agent. […] It will also be recognized that much lower doses of the stronger superparamagnetics (including doses below about 0.01 mmol/kg, versus 0.1 mmol/kg for Gd-DTPA) can be used to obtain effective MRI contrast enhancement; and that much faster, more heavily T1-weighted pulse sequences can be implemented in the presence of intramolecularly superparamagnetic polyatomic complex-carrier polymer conjugates or paired-ion complexes.

tumor interstitium = details: in vivo; cited from earlier work
[4] = Blood and total body clearance; assay type: in vivo
[5] = usually; cited from earlier work
[6] = small-molecular contrast agents; cited from earlier work
malignant breast tumor = details: by 30 minutes postcontrast; cited from earlier work

Compound: [O]=[51Cr](=[O])([O-])[O-] [^51 Chromium, ^51 CrO4^-2]
- Average rate of elution from red cells (red cells): 0.93 % per day

Compound: N.N.[Cl][Pt][Cl] [cisplatin, cis-dichlorodiamine platinum]
- Intracellular tumor-cell platinum staining (VX2 carcinomas): aggregated staining was absent

Compound: Cisplatin-DTPA-Dextran (70,000 MW) [DTPA-dextran cisplatin]
- Complexation of exogenously added calcium ions by the DTPA groups [1]: reduction in the complexation of exogenously added calcium ions
- Tetany / toxicity following intravenous injection (CBA/J mice): elimination of tetany
- Platinum content, Kidney [2]: 2.92 ng/mg of tissue, wet weight
- Platinum content, Liver [2]: 3.47 ng/mg of tissue, wet weight
- Platinum content, Blood ([2]; Ipsilateral): 2.14 ng/mg of tissue, wet weight
- Platinum content, Muscle ([2]; Ipsilateral): 0.29 ng/mg of tissue, wet weight
- Platinum content, Tumor ([2]; Ipsilateral): 10.81 ng/mg of tissue, wet weight

Compound: gadolinium diethylenetriamine pentaacetic acid [Gd-DTPA]
- Fading of tumor enhancement ([3]; by one hour, 0.1 mmol/kg): completely faded
- Time to begin to optimally enhance the tumors ([3]; intravenous, Gd-DTPA-dextran 0.03 mmol Gd/kg, Gd-DTPA 0.1 mmol/kg): 10 min
- Retention in tumor interstitium (tumor interstitium): 10 to 45 min
- Blood clearance t1/2 [4]: 20 min
- Retained fraction [5]: less than 0.5%
- Initial biodistribution, share of total body water [6]: ca. 35%

Compound: gadolinium diethylenetriamine pentaacetic acid dimeglumine [Gd-DTPA dimeglumine]
- Tumor fading, in words (malignant breast tumor): almost complete fading (tumor clearance)
